What all share (type): physicochemical
Data set [1] in a line: Laser diffraction granulometry (dry mode, Mastersizer S). The protocol:
Laser Diffraction Granulometry (European Pharmacopeia (PE), Current Edition, 2.9.31)
Analysis of the granulometric distribution was performed in dry mode on a Mastersizer S laser granulometer (Malvern®). The detection range of this instrument in dry mode is from 0.05 μm to 900 μm. This study was performed on 20 g of active principle, at a pressure of 1, 2 and 3 bar. Each test was performed 3 times for each pressure.

The nature of data set [2]: Funnel flow (Erweka flow tester, PE 2.9.16). Conditions: standardized funnel; 100 g raw materials, 20 g mixtures. The method, then:
(§1) A. Funnel Flow and Angle of Repose (PE 2.9.16-2.9.36)
(§2) The tests were performed on an Erweka® flow tester on all of the raw materials and mixtures tested using a standardized funnel. The tests performed on the raw materials were carried out on 100 g of powder, and on 20 g for mixtures (batches A, F, G, H, I, J).

Data set [3] is described as follows: Angle of repose (PE 2.9.36). Conditions: mixing time 5 minutes. The method, then:
as §1, §2
Determination of the angle of repose was performed on the powders alone and on the mixtures, as defined in the European Pharmacopeia. Different mixing times of 5, 10 and 30 minutes were tested on the mixtures (batches of F to J) to determine the influence of the mixing time on the flow (Table IV).

A short description of data set [4]: Tapped density (volumenometer, PE 2.9.34). Conditions: after tamping; for Hausner ratio: criterion <1.20; for Carr index: criterion <20%. The method, then:
B. Tapped Density (PE 2.9.34)
The tests were performed on a volumenometer (Erweka® GmbH SVM12). The Carr and Hausner indices can be determined by this test. The tests performed on the raw materials were carried out on 100 g of powder, and on 20 g for mixtures (batches A, F, G, H, I, J).

Compound `Cc1ncc(COP(=O)(O)O)c(C=O)c1O` [Batch A, Pyridoxal-5-phosphate] came in with a d50 in data set [1] (dry mode) of 11 μm. In addition, in data set [1] (dry mode, 1, 2 and 3 bar), the particle size entry was “below 100 μm”. The Flow result in data set [2] is “no flow”.
Regarding `OC[C@H]1O[C@@](CO)(O[C@H]2O[C@H](CO)[C@@H](O)[C@H](O)[C@H]2O)[C@@H](O)[C@@H]1O` [Batch D, Sucrose], in data set [3], the Angle of repose stood at 40.5° and the “Angle of repose, Interpretation” value is “Quite”. Besides, in data set [2], the Flow was 22 s. For the same compound, in data set [4], the “Carr index, interpretation” value is given as “Excellent”; the “Compactibility (V10-V500)” value turned out to be 3 mL; the “Hausner ratio, interpretation” value is listed as “Excellent”; the Hausner ratio was 1.10. The Carr index in data set [4] came out at 8.70%.
`OC[C@@H](O)[C@@H](O)[C@H](O)[C@@H](O)CO` [Batch E, Sorbitol]: in data set [3], the Angle of repose was 43.6° and the “Angle of repose, Interpretation” value is given as “Passable”. For the same compound, in data set [2], the Flow worked out at 9.6 s. Moreover, in data set [4], the “Carr index, interpretation” value is recorded as “Excellent”; the “Compactibility (V10-V500)” value came out at 9 mL; the “Hausner ratio, interpretation” value is “Excellent”; the Hausner ratio is 1.10. Besides, the Carr index in data set [4] stood at 9.05%.
On to `OC[C@@H](O)[C@@H](O)[C@H](O)[C@H](O)CO` [Batch Q, Mannitol], for which, in data set [3], the Angle of repose is 38.3° and the “Angle of repose, Interpretation” value was “Quite”. Moreover, the Flow in data set [2] turned out to be 27.1 s. Also, in data set [4], the “Carr index, interpretation” value is recorded as “Excellent”; the “Compactibility (V10-V500)” value was 0 mL; the “Hausner ratio, interpretation” value is on record as “Excellent”; the Hausner ratio worked out at 1.02. In addition, the Carr index in data set [4] worked out at 7.48%.
With Isomalt [Batch C], in data set [3], the Angle of repose was 45° and the “Angle of repose, Interpretation” value is given as “Passable”. In data set [2], the Flow worked out at 23.8 s. For the same compound, in data set [4], the “Carr index, interpretation” value is on record as “Good”; the “Compactibility (V10-V500)” value is 8 mL; the “Hausner ratio, interpretation” value is on record as “Good”; the Hausner ratio was 1.13. Besides, the Carr index in data set [4] is given as 11.25%.
